Data from patent US20140296147A1, “METHODS OF TREATING OR PREVENTING BLOOD LOSS DURING SURGERY USING THE SERINE PROTEASE INHIBITOR MDCO-2010” (THE MEDICINES COMPANY, priority 2011, published 2014).
Read-outs that look alike come from different tables or passages of the source. Marks after values point to notes of the source that are not given here.

Columns and labels:
[1] = test system: patients undergoing elective, primary CABG (coronary artery bypass graft) surgery; assay: Phase IIa placebo-controlled dose-escalation study: postoperative blood loss and transfusions; assay type: in vivo, human
Experimental: (§1) A Phase IIa, single-center, double-blind, placebo-controlled dose-escalation study was performed to investigate MDCO-2010 in patients undergoing elective, primary CABG (coronary artery bypass graft) surgery.
After independent ethics committee approval and written informed consent, thirty two patients underwent CABG surgery (patient characteristics shown in Table 1) through midline sternotomy using minimized extracorporeal circulation (MECC, priming volume of 600 mL).
Initial heparin dosing (400 units/kg) and heparin maintenance was guided by the Hepcon HMS, with a kaolin ACT target of 480 seconds. Immediately after heparin bolus, study drug administration was initiated with a loading (bolus) dose followed by a continuous infusion of the maintenance dose via a central venous catheter until sternal closure. Patients were randomized in a 3:1 ratio to receive either one of five MDCO-2010 doses (continuous infusion of 12.5, 25, 62.5, 109 or 219 μg/kg/h maintenance dose; 24 patients) or saline as placebo (8 patients). […]
loading dose 5 μg/kg, maintenance dose 12.5 μg/kg/h; pump prime 0.02 mg; 3 patients loading dose 11 μg/kg, maintenance dose 25 μg/kg/h; pump prime 0.04 mg; 3 patients loading dose 27 μg/kg, maintenance dose 62.5 μg/kg/h; pump prime 0.09 mg; 6 patients loading dose 47 μg/kg, maintenance dose 109 μg/kg/h; pump prime 0.18 mg; 6 patients loading dose 94 μg/kg, maintenance dose 219 μg/kg/h; pump prime 0.35 mg; 6 patients The loading dose was administered over a five minute period of time in a 10 mL infusion. The maintenance dose was administered as a continuous infusion with a constant flow rate of 23 mL/h for the duration of procedure. MDCO-2010 was also added to the pump prime fluid to the targeted plasma concentration. The pump prime was supplied as a 10 mL load.

[2] = Plasma pharmacokinetics of MDCO-2010 (LC/MS/MS, non-compartmental analysis) during CABG surgery; assay type: in vivo, human; details: for half-life / clearance / Vd / AUC(0-inf) / AUC(0-t) / Cmax: human, plasma
Experimental: Nominal blood sampling times for PK analysis were pre-dose (T1, pre-heparin) and at 10 min (pre-CBP), 15 min, 30 min, 60 min (or just before cessation of CPB), at the end of infusion (sternal closure), 15 min, 30 min, and at 4 hours post-end of infusion. Actual times were calculated for each patient and used for PK analysis.
MDCO-2010 was measured in plasma by liquid chromatography with tandem mass spectrometry (LC/MS/MS).
Plasma concentrations versus time data were analyzed by non-compartmental analysis using the program WinNonlin Professional Version 5.3 (Pharsight, Mountain View, Calif., USA). Actual sampling times were used for the evaluation.
The following parameters were determined: • AUC0-tlast=area under the MDCO-2010 concentration versus time curve from dosing time to the last time point with a value above the lower limit of quantitation (LLOQ), calculated by linear/log trapezoidal method which uses the linear trapezoidal rule up to Cmax and log trapezoidal rule for the remainder of the curve • AUC0-inf=area under the concentration-time curve from […]; calculated as AUC0-tlast+AUCexpol, where AUCexpol=Clast/λ • Css=steady-state plasma concentration calculated by taking the average of the concentrations in T4 to T7 • Cmax=maximum concentration, directly taken from measured values • t1/2=apparent terminal elimination half-life determined by log-linear regression • CL=total body clearance • Vss=volume of distribution at steady state
Descriptive statistics (number of subjects, arithmetic means, standard deviation (SD), geometric means, medians, minimum and maximum values) were determined for all PK variables, separately for each treatment. Values below the LLOQ of the assay were taken as zero for descriptive statistics of concentrations. For AUC calculations, values below LLOQ were taken as zero if no quantifiable concentrations were found before the value, as missing if quantifiable concentrations were found before and after the value, and also as missing if quantifiable concentrations were found before, but not after the value. Mean (±SD) concentration time plots were provided for each treatment group using linear and semi-logarithmic scale.
Dose proportionality was assessed by the power model using SAS Version 9 (SAS Institute Inc., Cary, N.C.).
The mean values for PK parameters per dose group (mean (±SD) pharmacokinetic variables of MDCO-2010 administered via IV infusion during CABG surgery based on non-compartmental analysis) are summarized in Table 3.

tPA-induced fibrinolysis = assay: Antifibrinolytic effect: D-dimer generation and tPA-induced lysis in CABG patients; assay type: in vivo, human; details: five escalating doses, FIG. 2
Experimental: as §1
(§2) Initial heparin dosing (400 units/kg) and heparin maintenance was guided by the Hepcon HMS, with a kaolin ACT target of 480 seconds. Immediately after heparin bolus, study drug administration was initiated with a loading (bolus) dose followed by a continuous infusion of the maintenance dose via a central venous catheter until sternal closure. Patients were randomized in a 3:1 ratio to receive either one of five MDCO-2010 doses (continuous infusion of 12.5, 25, 62.5, 109 or 219 μg/kg/h maintenance dose; 24 patients) or saline as placebo (8 patients).

[3] = test system: intrinsic and extrinsic pathways; assay: Anticoagulant effect: ACT, aPTT and ROTEM coagulation times in CABG patients; assay type: in vivo, human; details: five escalating doses, FIG. 3
Experimental: as §1, §2

[4] = test system: patients undergoing elective, primary CABG (coronary artery bypass graft) surgery; assay: Safety markers and safety profile in CABG patients; assay type: in vivo, human
Experimental: as §1, §2

plasmin = plasmin (Homo sapiens, UniProt P00747); details: active-site directed, reversible, no cofactor; cited from earlier work
plasma kallikrein = plasma kallikrein (Homo sapiens, UniProt P03952); details: active-site directed, reversible, no cofactor; cited from earlier work
coagulation Factor Xa = coagulation Factor Xa (Homo sapiens, UniProt P00742); details: cited from earlier work
coagulation Factor XIa = coagulation Factor XIa (Homo sapiens, UniProt P03951); details: cited from earlier work
activated Protein C = activated Protein C (Homo sapiens, UniProt P04070); details: cited from earlier work
[5] = Cohort 1 (N = 3): loading dose 5 μg/kg, maintenance dose 12.5 μg/kg/h
[6] = Cohort 2 (N = 3): loading dose 11 μg/kg, maintenance dose 25 μg/kg/h
[7] = Cohort 3 (N = 6): loading dose 27 μg/kg, maintenance dose 62.5 μg/kg/h
[8] = Cohort 4 (N = 6): loading dose 47 μg/kg, maintenance dose 109 μg/kg/h
[9] = Cohort 5 (N = 6): loading dose 94 μg/kg, maintenance dose 219 μg/kg/h, 1 patient received additional heparin without protamine reversal
[10] = Cohort 1, mean dose 1.88 mg, IV infusion during CABG surgery, mean
[11] = Cohort 2, mean dose 4.99 mg, IV infusion during CABG surgery, mean
[12] = Cohort 3, mean dose 12.33 mg, IV infusion during CABG surgery, mean
[13] = Cohort 4, mean dose 19.57 mg, IV infusion during CABG surgery, mean
[14] = Cohort 5, mean dose 38.01 mg, IV infusion during CABG surgery, mean

Chain of coagulation Factor XIa (P03951 388-625 limits assumed): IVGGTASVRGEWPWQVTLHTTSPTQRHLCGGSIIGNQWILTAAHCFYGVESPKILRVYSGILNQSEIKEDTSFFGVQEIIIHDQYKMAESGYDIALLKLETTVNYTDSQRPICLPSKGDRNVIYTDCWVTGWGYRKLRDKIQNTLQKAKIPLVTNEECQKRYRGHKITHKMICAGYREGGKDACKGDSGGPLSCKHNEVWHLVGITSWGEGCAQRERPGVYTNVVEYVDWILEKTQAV
Chain of coagulation Factor XIa (P03951 19-387 partner limits assumed): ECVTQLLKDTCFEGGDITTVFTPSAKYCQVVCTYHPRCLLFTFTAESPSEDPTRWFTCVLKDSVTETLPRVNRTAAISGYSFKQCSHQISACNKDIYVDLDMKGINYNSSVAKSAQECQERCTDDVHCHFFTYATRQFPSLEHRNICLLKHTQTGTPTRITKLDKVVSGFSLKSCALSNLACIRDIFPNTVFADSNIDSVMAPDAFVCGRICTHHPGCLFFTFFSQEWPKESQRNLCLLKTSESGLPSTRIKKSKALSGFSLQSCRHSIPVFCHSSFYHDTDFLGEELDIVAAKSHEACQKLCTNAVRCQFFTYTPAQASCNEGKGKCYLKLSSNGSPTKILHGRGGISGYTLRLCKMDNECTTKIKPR
Chain of coagulation Factor Xa (P00742 235-488 limits assumed): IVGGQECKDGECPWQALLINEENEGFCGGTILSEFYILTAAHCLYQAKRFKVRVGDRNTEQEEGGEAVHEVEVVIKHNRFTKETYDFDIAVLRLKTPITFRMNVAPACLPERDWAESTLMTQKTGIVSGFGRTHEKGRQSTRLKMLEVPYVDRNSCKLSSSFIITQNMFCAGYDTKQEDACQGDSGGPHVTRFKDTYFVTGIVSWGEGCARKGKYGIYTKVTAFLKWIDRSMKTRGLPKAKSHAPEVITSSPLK
Chain of coagulation Factor Xa (P00742 41-179 partner limits assumed): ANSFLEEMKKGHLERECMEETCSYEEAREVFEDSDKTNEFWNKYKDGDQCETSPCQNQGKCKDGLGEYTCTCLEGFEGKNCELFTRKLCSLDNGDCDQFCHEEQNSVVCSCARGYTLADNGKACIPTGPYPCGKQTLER
Chain of plasma kallikrein (P03952 391-638 limits assumed): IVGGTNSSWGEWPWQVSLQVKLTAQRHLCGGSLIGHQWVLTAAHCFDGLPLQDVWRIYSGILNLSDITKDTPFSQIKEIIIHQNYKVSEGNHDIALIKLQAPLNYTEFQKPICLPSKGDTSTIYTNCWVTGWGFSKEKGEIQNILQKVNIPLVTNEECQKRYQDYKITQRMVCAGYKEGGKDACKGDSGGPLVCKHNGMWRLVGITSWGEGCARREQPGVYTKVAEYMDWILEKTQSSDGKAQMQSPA
Chain of plasma kallikrein (P03952 20-390 partner limits assumed): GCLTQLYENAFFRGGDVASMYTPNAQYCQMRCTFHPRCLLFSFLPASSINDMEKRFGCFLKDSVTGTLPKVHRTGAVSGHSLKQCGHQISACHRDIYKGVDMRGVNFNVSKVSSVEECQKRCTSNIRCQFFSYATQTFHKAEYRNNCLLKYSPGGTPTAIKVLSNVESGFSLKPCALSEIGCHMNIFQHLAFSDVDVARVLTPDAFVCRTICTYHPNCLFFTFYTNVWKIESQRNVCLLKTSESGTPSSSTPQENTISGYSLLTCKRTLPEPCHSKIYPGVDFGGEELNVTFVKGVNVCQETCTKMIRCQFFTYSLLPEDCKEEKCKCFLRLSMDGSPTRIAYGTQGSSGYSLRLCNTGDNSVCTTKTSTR
Chain of plasmin (P00747 581-810 limits assumed): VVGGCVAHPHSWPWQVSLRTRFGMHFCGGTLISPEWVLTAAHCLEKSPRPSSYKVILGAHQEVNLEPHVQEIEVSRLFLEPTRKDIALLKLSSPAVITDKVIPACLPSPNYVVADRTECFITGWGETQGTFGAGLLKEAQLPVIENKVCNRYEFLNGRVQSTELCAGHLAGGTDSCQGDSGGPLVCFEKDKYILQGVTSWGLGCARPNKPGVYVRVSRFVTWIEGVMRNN
Chain of plasmin (P00747 97-580 partner limits assumed): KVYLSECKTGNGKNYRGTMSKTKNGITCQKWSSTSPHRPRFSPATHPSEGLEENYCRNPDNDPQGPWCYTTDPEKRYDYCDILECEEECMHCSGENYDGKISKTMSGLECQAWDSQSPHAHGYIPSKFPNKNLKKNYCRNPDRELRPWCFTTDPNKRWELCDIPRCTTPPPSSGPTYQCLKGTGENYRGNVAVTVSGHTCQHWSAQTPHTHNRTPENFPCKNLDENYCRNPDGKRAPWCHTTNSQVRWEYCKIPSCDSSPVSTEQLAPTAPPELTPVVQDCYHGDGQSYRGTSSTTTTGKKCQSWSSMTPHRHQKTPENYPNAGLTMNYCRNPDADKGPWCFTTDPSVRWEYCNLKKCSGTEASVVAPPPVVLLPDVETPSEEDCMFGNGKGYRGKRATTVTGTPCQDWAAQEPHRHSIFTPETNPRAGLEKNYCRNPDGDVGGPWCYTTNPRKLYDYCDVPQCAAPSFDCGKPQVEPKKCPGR
Chain of activated Protein C (P04070 212-461 limits assumed): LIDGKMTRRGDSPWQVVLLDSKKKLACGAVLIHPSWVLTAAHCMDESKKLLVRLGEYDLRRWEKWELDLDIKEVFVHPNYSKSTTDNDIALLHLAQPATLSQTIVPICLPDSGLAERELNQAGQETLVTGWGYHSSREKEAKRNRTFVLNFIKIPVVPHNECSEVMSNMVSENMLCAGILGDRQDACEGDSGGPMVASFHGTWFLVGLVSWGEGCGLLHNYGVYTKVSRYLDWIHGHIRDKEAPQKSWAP
Chain of activated Protein C (P04070 43-197 partner limits assumed): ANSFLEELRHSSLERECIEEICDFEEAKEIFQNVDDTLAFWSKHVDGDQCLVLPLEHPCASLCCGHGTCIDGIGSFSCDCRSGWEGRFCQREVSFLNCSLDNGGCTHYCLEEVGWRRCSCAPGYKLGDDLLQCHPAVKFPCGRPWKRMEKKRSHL

In the case of `N=C(N)c1ccc(CNC(=O)[C@H](Cc2cccc(CN)c2)NC(=O)[C@@H](CCCc2ccccc2)NS(=O)(=O)Cc2cccc(C(=O)O)c2)cc1` [MDCO-2010, 3-({1-[2-(3-Aminomethyl-phenyl)-1-(4-carbamimidoyl-benzylcarbamoyl)-ethylcarbamoyl]-4-phenyl-butylsulfamoyl}-methyl)-benzoic acid], the “12 hour postoperative chest tube drainage, median ± SD” value [1, 5] is reported as 450 ± 172 mL, the “Average number of transfusions per patient” value (from here on “Average number … per patient”) [1, 5] is reported as 0 and the Patients receiving transfusions [1, 5] is reported as 0/3. The “12 hour postoperative chest tube drainage, median ± SD” value [1, 6] was 595 ± 125 mL, the “Average number … per patient” value [1, 6] was 0 and the Patients receiving transfusions [1, 6] was 0/3. The “Average number … per patient” value [1, 7] was 0.33, the Patients receiving transfusions [1, 7] was 1/6 and the “Average number … per patient” value [1, 8] was 0.17. For the same compound, the Patients receiving transfusions [1, 8] was 1/6, the “Average number … per patient” value [1, 9] was 0.67† and the Patients receiving transfusions [1, 9] was 2/6†. The “Chest tube drainage, incidence and volume of RBC transfusions vs. placebo” value ([1]; MDCO-2010 vs. placebo) was “significantly lower”, the Css [2, 10] was 50.06 ng/mL and the Css [2, 11] was 96.31 ng/mL. The Css [2, 12] was 268.21 ng/mL, the Css [2, 13] was 478.86 ng/mL and the Css [2, 14] was 1009.17 ng/mL. For the same compound, the “plasma levels during the infusion” value ([2]; continuous infusion, FIG. 1) was “stable”, the “mean MDCO-2010 plasma concentrations versus dose” value ([2]; five escalating doses, CABG patients) was “linear dose-proportional increase” and the half-life ([2]; intravenous, following an approximately 100 minute infusion period, all cohorts, read-out: mean value for the elimination half-life) was roughly 1.38 h. The half-life ([2]; intravenous, after end of infusion, CABG patients, read-out: terminal half-life (converted)) was 1 h, the half-life ([2]; intravenous, range over cohorts, read-out: elimination half-life, range) was 1.02 to 1.7 h and the clearance ([2]; intravenous, 1.88 mg total dose, read-out: Total body clearance) was 220 ± 78 mL/min. It also gave a clearance ([2]; intravenous, 38.01 mg total dose, read-out: Total body clearance) of 153 ± 19 mL/min, a Vd ([2]; intravenous, all dose levels, read-out: Volume of distribution (Vss), range) of 12 to 17 L and a half-life ([2]; iv, 1.88 mg, Cohort 1, mean dose 1.88 mg, IV infusion during CABG surgery, mean, read-out: t1/2) of 1.02 h. The half-life ([2]; iv, 4.99 mg, Cohort 2, mean dose 4.99 mg, IV infusion during CABG surgery, mean, read-out: t1/2) was 1.21 h, the half-life ([2]; iv, 12.33 mg, Cohort 3, mean dose 12.33 mg, IV infusion during CABG surgery, mean, read-out: t1/2) was 1.26 h and the half-life ([2]; iv, 19.57 mg, Cohort 4, mean dose 19.57 mg, IV infusion during CABG surgery, mean, read-out: t1/2) was 1.74 h. The half-life ([2]; iv, 38.01 mg, Cohort 5, mean dose 38.01 mg, IV infusion during CABG surgery, mean, read-out: t1/2) was 1.72 h, the AUC(0-inf) [2, 10] was 152 ng·h/mL and the AUC(0-t) [2, 10] was 125 ng·h/mL. For the same compound, the Cmax [2, 10] was 54.8 ng/mL, the clearance ([2]; Cohort 1, mean dose 1.88 mg, IV infusion during CABG surgery, mean, read-out: Cl) was 220 mL/min and the Vd ([2]; Cohort 1, mean dose 1.88 mg, IV infusion during CABG surgery, mean, read-out: Vss) was 12.7 L. The AUC(0-inf) [2, 11] was 334 ng·h/mL, the AUC(0-t) [2, 11] was 278 ng·h/mL and the Cmax [2, 11] was 114 ng/mL. It also gave a clearance ([2]; Cohort 2, mean dose 4.99 mg, IV infusion during CABG surgery, mean, read-out: Cl) of 263 mL/min, a Vd ([2]; Cohort 2, mean dose 4.99 mg, IV infusion during CABG surgery, mean, read-out: Vss) of 16.1 L and an AUC(0-inf) [2, 12] of 991 ng·h/mL. It also gave an AUC(0-t) [2, 12] of 905 ng·h/mL, a Cmax [2, 12] of 288 ng/mL and a clearance ([2]; Cohort 3, mean dose 12.33 mg, IV infusion during CABG surgery, mean, read-out: Cl) of 199 mL/min. The Vd ([2]; Cohort 3, mean dose 12.33 mg, IV infusion during CABG surgery, mean, read-out: Vss) was 12.3 L, the AUC(0-inf) [2, 13] was 1880 ng·h/mL and the AUC(0-t) [2, 13] was 1640 ng·h/mL. For the same compound, the Cmax [2, 13] was 564 ng/mL, the clearance ([2]; Cohort 4, mean dose 19.57 mg, IV infusion during CABG surgery, mean, read-out: Cl) was 179 mL/min and the Vd ([2]; Cohort 4, mean dose 19.57 mg, IV infusion during CABG surgery, mean, read-out: Vss) was 17.4 L. It also gave an AUC(0-inf) [2, 14] of 4060 ng·h/mL, an AUC(0-t) [2, 14] of 3620 ng·h/mL and a Cmax [2, 14] of 1150 ng/mL. The clearance ([2]; Cohort 5, mean dose 38.01 mg, IV infusion during CABG surgery, mean, read-out: Cl) was 153 mL/min, the Vd ([2]; Cohort 5, mean dose 38.01 mg, IV infusion during CABG surgery, mean, read-out: Vss) was 15.1 L and the plasma levels abated ([2]; within 4 hours of the end of infusion) was 85%. The “antifibrinolytic effect (suppression of D-dimer generation and inhibition of tPA-induced lysis)” value (tPA-induced fibrinolysis) was “dose-dependent antifibrinolytic effect”, the “ACT, aPTT and rotation thrombelastometry (ROTEM) coagulation times” value [3] was “dose-related prolongation” and the “troponin T, CK-MB, prothrombin fragment F1+2, interleukins IL-6 and IL-10, ALAT, ASAT, serum creatinine vs. placebo” value ([4]; patients treated with MDCO-2010 vs. placebo, results not shown) was “No differences”. For the same compound, the “safety profile of escalating doses” value ([4]; primary CABG surgery, first-in-patient study) was “acceptable safety profile”, the inhibition of plasmin (plasmin) was “potent inhibitor” and the “inhibition of plasma kallikrein” value (plasma kallikrein) was “potent inhibitor”. For the same compound, the “inhibition of coagulation Factor Xa” value (coagulation Factor Xa) was “inhibits”, the “inhibition of coagulation Factor XIa” value (coagulation Factor XIa) was “inhibits” and the “inhibition of activated Protein C” value (activated Protein C) was “inhibits”.
